The source of these data is paper PMC10056636, “3-Amino-Substituted Analogues of Fusidic Acid as Membrane-Active Antibacterial Compounds” (Membranes, 2023).

In brackets after ≈: the same amount, converted by molar mass. Like-named read-outs stand apart in the source and are kept apart here. Bounds are passed on as bounds.

The subject of series [1] is Staphylococcus aureus (ATCC 43300) (MRSA). In words: Antibacterial whole-cell growth inhibition (MIC, CO-ADD). Format: cell-based. The settings on record: for MIC: S. aureus (MRSA) ATCC 43300, inhibition ≥80%, two replicates (n = 2); for primary screening: antimicrobial activity: S. aureus (MRSA), primary screen at 32 μg/mL. The method, then:
(§1) Antibacterial screening was carried out by the serial dilution method. All bacteria were cultured in the cation-adjusted Mueller Hinton broth (CAMHB) at 37 °C overnight. A sample of each culture was then diluted 40-fold in fresh broth and incubated at 37 °C for 1.5–3 h. The resultant mid-log phase cultures were diluted (CFU/mL measured by OD600) and then added into each well containing a test compound, giving a cell density of 5 × 10^5 CFU/mL and a total volume of 50 µL. All the plates were covered and incubated at 37 °C for 18 h without shaking.
(§2) Inhibition of bacterial growth was determined by measuring the absorbance at 600 nm (OD600) with a Tecan M1000 Pro monochromator plate reader. […]

Series [2] can be described thus: in vitro. Type of series: cell-based, human. The following applies: human, CC50. The method, then:
(§3) HEK293 cells were counted manually in a Neubauer hemocytometer and then plated in 384-well plates containing the test compounds to give a density of 5000 cells per well in a final volume of 50 µL. DMEM supplemented with 10% FBS was used as the growth medium, and the cells were incubated together with the compounds for 20 h at 37 °C in 5% CO2.
(§4) The cytotoxicity (or cell viability) was measured by fluorescence, ex: 560/10 nm, em: 590/10 nm (F560/590), after addition of 5 µL of 25 µg/mL resazurin (2.3 µg/mL final concentration) and after incubation for further 3 h at 37 °C in 5% CO2. The fluorescence intensity was measured using a Tecan M1000 Pro monochromator plate reader with automatic gain control. The CC50 (50% cytotoxicity concentration) values were calculated by curve fitting of inhibition vs. log(concentration) using a sigmoidal dose–response function, with variable fitting values for bottom, top, and slope. In addition, the maximal percentage of cytotoxicity is reported as DMax, indicating any compounds with partial cytotoxicity. The curve fitting was implemented using Pipeline Pilot’s dose–response component. The results were similar to those obtained by other curve-fitting tools, such as GraphPad’s Prism and IDBS’s XlFit. Any value with > indicated samples with no activity (low DMax value) or samples with CC50 values above the maximum tested concentration (higher DMax value).
(§5) In addition, samples were flagged as partially cytotoxic if DMax ≥ 50%, even for CC50 > the maximum tested concentration.
(§6) Tamoxifen served as a positive cytotoxicity standard. Melittin was used as a positive hemolytic standard.

Series [3] relates to human embryonic kidney cell line HEK293 (ATCC CRL-1573). In words: in vitro. Type of series: cell-based. The following applies: human, 20 h. The method, then:
as §3, §4, §5, §6

Series [4] in a line: Hemolysis assay. The settings on record: human, Dmax (maximal percentage of hemolysis). Type of series: cell-based, human. On the procedure:
(§7) Human whole blood was washed three times with 3 volumes of 0.9% NaCl and then resuspended in the same medium to a concentration of 0.5 × 10^8 cells/mL, as determined by manual cell count in a Neubauer hemocytometer. The washed cells were then added to 384-well plates containing the test compounds to a final volume of 50 µL. After shaking on a plate shaker for 10 min, the plates were incubated for 1 h at 37 °C. After incubation, the plates were centrifuged at 1000× g for 10 min to pellet the cells and debris; 25 µL of the supernatant was then transferred to a polystyrene 384-well assay plate.
(§8) Hemolysis was monitored by measuring the supernatant absorbance at […] (OD405). The absorbance was measured using a Tecan M1000 Pro monochromator plate reader. HC10 and HC50 (10% and 50% hemolysis concentrations, respectively) were calculated by curve fitting of inhibition vs. log(concentration) using a sigmoidal dose–response function with variable fitting values for top, bottom, and slope. In addition, the maximal percentage of hemolysis is reported as DMax, indicating any compounds with partial hemolysis. The curve fitting was implemented using Pipeline Pilot’s dose–response component. […] Any value with > indicated sample with no activity (low DMax value) or samples with HC10 values above the maximum tested concentration (higher DMax value).
(§9) In addition, samples were flagged as partially hemolytic if DMax ≥ 50%, even for HC10 > the maximum tested concentration. […]

The subject of series [5] is human red blood cells. In words: Hemolysis assay. Type of series: cell-based. The settings on record: human, 1 h. On the procedure: as §7, §8, §9
Series [6] deals with Cryptococcus neoformans (ATCC 208821). In words: Antifungal growth inhibition (MIC, CO-ADD). The following applies: for MIC: inhibition ≥70%, two replicates per cell; for primary screening: growth inhibition: primary screen at 32 μg/mL.
Description: Antimicrobial, cytotoxicity, and hemolytic activity screening of the synthesized derivatives was carried out in the CO-ADD (The Community for Antimicrobial Drug Discovery) (http://www.co-add.org, accessed on 24 November 2020) and included analysis for antibacterial properties, cytotoxicity, and hemolytic activity.
The hit confirmation test included five bacteria, Escherichia coli (ATCC 25922), Klebsiella pneumoniae (ATCC 700603), Acinetobacter baumannii (ATCC 19606), Pseudomonas aeruginosa (ATCC 27853), and Staphylococcus aureus (ATCC 43300), and two fungi, Candida albicans (ATCC 90028) and Cryptococcus neoformans (ATCC 208821). […] The compounds were also screened for hemolysis of human red blood cells (human whole blood, strain ARCBS 5400 00150).
Samples were prepared in DMSO and water to a final testing concentration of 32 µg/mL or 20 µM (unless otherwise indicated in the data sheet) and serially diluted twofold up to 8 times. Each sample concentration was prepared in 384-well plates: non-binding surface plate (NBS; Corning 3640) for each bacterial/fungal strain, tissue-culture treated (TC-treated; Corning 3712/3764) black for mammalian cell types and polypropylene 384-well plates (PP; Corning 3657) for hemolysis assays. The final DMSO concentration was maintained to a maximum of 0.5%. All sample preparation procedures were performed using liquid-handling robots. All screening was performed as two replica (n = 2), with both replicas on different assay plates, but from single plating and performed in a single screening experiment (microbial incubation). In addition, two values are used as quality controls for individual plates: Z′-Factor [1 − (3* (sd(NegCtrl) + sd(PosCtrl))/(average(PosCtrl)-average(NegCtrl)))] and standard antibiotic controls at different concentrations (>MIC and <MIC).
Fungi strains were cultured for 3 days on yeast extract-peptone dextrose (YPD) agar at 30 °C. A yeast suspension of 1 × 10^6 to 5 × 10^6 CFU/mL (as determined by OD530) was prepared from five colonies. The suspension was subsequently diluted and added to each well containing a test compound, giving a final cell density of fungi suspension of 2.5 × 10^3 CFU/mL and a total volume of 50 µL. All plates were covered and incubated at 35 °C for 36 h without shaking.
The absorbance was measured using a Biotek Multiflo Synergy HTX plate reader. In both cases, the percentage of growth inhibition was calculated for each well, using the negative control (media only) and positive control (fungi without inhibitors) in the same plate. […] In addition, the maximal percentage of growth inhibition is reported as DMax, indicating any compounds with marginal activity.
Fluconazole was used as a positive fungal inhibitor standard for C. albicans and C. neoformans. […] The quality control (QC) of the assays was performed using Z′-factors calculated from the negative (media only) and positive controls (bacterial, fungal, or cell culture without inhibitor) and the standards.
Series [7] relates to Acinetobacter baumannii (ATCC 19606). The experiment in a line: Antibacterial whole-cell growth inhibition (MIC, CO-ADD). Type of series: cell-based. The settings on record: A. baumannii, two replicates per cell. The method, then:
as §1, §2

The test system of series [8] is Escherichia coli (ATCC 25922). Described as above. The settings on record: E. coli, two replicates per cell. Type of series: cell-based. The method, then: as §1, §2
Series [9] relates to Pseudomonas aeruginosa (ATCC 27853). The series is described as above. Format: cell-based. The settings on record: P. aeruginosa, two replicates per cell. The method, then:
as §1, §2

Series [10] deals with Candida albicans (ATCC 90028). In words: Antifungal growth inhibition (MIC, CO-ADD). Type of series: cell-based.
Setting [11] is: Staphylococcus aureus, read-out: MIC.
The mark [12] stands for this setting: Cryptococcus neoformans, ATCC208821, C. neoformans.
Setting [13] is: Acinetobacter baumannii, ATCC19606, read-out: MIC.
Setting [14] is: Escherichia coli, ATCC25922, read-out: MIC.
Setting [15] is: Pseudomonas aeruginosa, ATCC27853, read-out: MIC.
Setting [16] is: C. albicans, inhibition ≥80%, two replicates per cell.
[17] abbreviates: Candida albicans, ATCC90028, C. albicans, inhibition ≥80%, two replicates per cell, read-out: MIC.

As to `CC(=O)O[C@H]1C[C@@]2(C)[C@H](C[C@@H](O)[C@@H]3[C@@]4(C)CC[C@H](NC(=O)c5cnccn5)[C@@H](C)C4CC[C@@]32C)/C1=C(\CCC=C(C)C)C(=O)O` (stereo partly drawn) [Compound 3, (2Z)-2-{(3β,4α,8α,11α,14β,16β)-16-(acetyloxy)-11-hydroxy-4,8,10,14-tetramethyl-3-[(pyrazin-2-ylcarbonyl)amino]gonan-17-ylidene}-6-methylhept-5-enoic acid], the melting point was in the range of 162 to 164 °C. In addition, in [1], the MIC was ≤0.25 ≤0.25 µg/mL and the “primary screening: antimicrobial activity” value is recorded as “showed antimicrobial activity”. For the same compound, in series [1] (setting [11]), the MIC is 0.25 µg/mL (≈ 0.402 µM). For the same compound, the CC50 at 20 h in [2] is more than 32 µg/mL. In addition, the CC50 in series [3] is >32 >32 µg/mL. The same compound had a hemolysis at 1 h in [4] of 2.2%. In [5], the “Dmax (maximal percentage of hemolysis)” value came out at 1.4% and the HC50 is listed as >32 >32 µg/mL.

`COC(=O)/C(CCC=C(C)C)=C1\[C@@H](OC(C)=O)C[C@@]2(C)[C@H]1C[C@@H](O)[C@H]1[C@@]3(C)CC[C@H](NCCN)[C@@H](C)[C@@H]3CC[C@@]12C` [Compound 12]: in series [1], the MIC stood at 32 µg/mL (≈ 55.9 µM) and the “primary screening: antimicrobial activity” value was “showed antimicrobial activity”. In addition, the MIC in series [1] (setting [11]) stood at 32 µg/mL (≈ 55.9 µM). Further, in series [2], the CC50 at 20 h was determined as 7.77 µg/mL (≈ 13.6 µM). In series [3], this compound registered a CC50 of 13.2 µg/mL (≈ 23 µM). The hemolysis at 1 h in series [4] came to 34.8%. Moreover, in [5], the “Dmax (maximal percentage of hemolysis)” value was 27.8% and the HC50 is >32 >32 µg/mL. In [6] (C. neoformans), the MIC worked out at 16 µg/mL (≈ 27.9 µM) and the “primary screening: growth inhibition” value is “inhibited the growth”. In series [6] (setting [12]), inhibition of growth (MIC) required 16 µg/mL (≈ 27.9 µM).

Turning to `COC(=O)/C(CCC=C(C)C)=C1\[C@@H](OC(C)=O)C[C@@]2(C)[C@H]1C[C@@H](O)[C@H]1[C@@]3(C)CC[C@H](NCc4ccccc4)[C@@H](C)[C@@H]3CC[C@@]12C` [Compound 18], the MIC in series [1] was 16 µg/mL (≈ 25.8 µM); in [1] (setting [11]), 16 µg/mL (≈ 25.8 µM); in series [6] (C. neoformans), 32 µg/mL (≈ 51.6 µM); in series [6] (setting [12]) it was 32 µg/mL (≈ 51.6 µM). The “primary screening: antimicrobial activity” value in [1] is on record as “showed antimicrobial activity”. In series [2], it took 17.8 µg/mL (≈ 28.7 µM) to reach half-maximal cytotoxicity (CC50 at 20 h). The CC50 in [3] is 17.5 µg/mL (≈ 28.2 µM). Moreover, the HC50 in series [5] is recorded as >32 >32 µg/mL. Also, the “primary screening: growth inhibition” value in series [6] (C. neoformans) is reported as “inhibited the growth”.

Consider `CC(=O)O[C@H]1C[C@@]2(C)[C@@H](C[C@@H](O)[C@H]3[C@@]4(C)CC[C@H](NCCCNCCCCN)[C@@H](C)[C@@H]4CC[C@@]32C)/C1=C(\CCC=C(C)C)C(=O)O` [Compound 19], for which the MIC in series [7] is >32 >32 µg/mL; in [7] (setting [13]), more than 32 µg/mL; in [8], >32 >32 µg/mL; in series [8] (setting [14]) it was more than 32 µg/mL; in series [1], 32 µg/mL (≈ 49.7 µM); in series [9], >32 >32 µg/mL. The MIC in series [9] (setting [15]) was more than 32 µg/mL; in series [10] (setting [16]), >32 >32 µg/mL; in series [10] (setting [17]), more than 32 µg/mL. The compound also came in with a CC50 at 20 h in [2] of more than 32 µg/mL. In addition, the CC50 in series [3] was >32 >32 µg/mL. This compound also showed a hemolysis at 1 h in [4] of 5.5%. For the same compound, in [5], the “Dmax (maximal percentage of hemolysis)” value was 5.3%. In addition, the HC50 in [5] was >32 >32 µg/mL.

Turning to `CC(=O)O[C@H]1C[C@@]2(C)[C@@H](C[C@@H](O)[C@H]3[C@@]4(C)CC[C@H](NCCCNCCCCNCCCN)[C@@H](C)[C@@H]4CC[C@@]32C)/C1=C(\CCC=C(C)C)C(=O)O` [Compound 21], the MIC in [7] was 32 µg/mL (≈ 45.6 µM); in [7] (setting [13]), 32 µg/mL (≈ 45.6 µM); in series [8] it was 32 µg/mL (≈ 45.6 µM); in series [8] (setting [14]) it was 32 µg/mL (≈ 45.6 µM); in series [1] (setting [11]) it was 2 to 8 µg/mL (≈ 2.85 to 11.4 µM); in series [9] it was 32 µg/mL (≈ 45.6 µM). For the same compound, the MIC in [9] (setting [15]), in series [10] (setting [16]) and in [10] (setting [17]) was 32 µg/mL (≈ 45.6 µM) in each case. Also, the CC50 at 20 h in [2] worked out at 24.2 µg/mL (≈ 34.5 µM). For the same compound, in series [3], the CC50 is more than 32 µg/mL. Also, the hemolysis at 1 h in series [4] is 8.7%. Moreover, in [5], the “Dmax (maximal percentage of hemolysis)” value is recorded as 6.4%. In series [5], the HC50 was >32 >32 µg/mL.

With `OC(Cn1cncn1)(Cn1cncn1)c1ccc(F)cc1F` [Fluconazole, reference compound], the MIC in series [10] (Candida albicans, ATCC90028) stood at 0.125 µg/mL (≈ 0.408 µM); in [6] (setting [12]), 8 µg/mL (≈ 26.1 µM).

As for `CC(=O)O[C@H]1C[C@@]2(C)[C@@H](C[C@@H](O)[C@H]3[C@@]4(C)CC[C@@H](O)[C@@H](C)[C@@H]4CC[C@@]32C)/C1=C(\CCC=C(C)C)C(=O)O` [Fusidic acid], the MIC in series [7] is >32 >32 µg/mL; in series [7] (setting [13]), more than 32 µg/mL; in series [8], >32 >32 µg/mL; in series [8] (setting [14]) it was more than 32 µg/mL; in series [1], ≤0.25 ≤0.25 µg/mL; in series [1] (setting [11]), not above 0.25 µg/mL. Besides, the MIC in series [9] is >32 >32 µg/mL; in series [9] (setting [15]), more than 32 µg/mL; in series [10] (setting [16]), >32 >32 µg/mL; in series [10] (setting [17]), more than 32 µg/mL; in [6] (C. neoformans) it was >32 >32 µg/mL; in series [6] (setting [12]), more than 32 µg/mL. In series [2], this compound had a CC50 at 20 h of more than 32 µg/mL. Further, the CC50 in series [3] is listed as >32 >32 µg/mL. Moreover, the hemolysis at 1 h in series [4] amounted to 10%. Further, in [5], the “Dmax (maximal percentage of hemolysis)” value is given as 9.7%. For the same compound, the HC50 in [5] is >32 >32 µg/mL.

Regarding Colistin [reference compound], the MIC was found to be 0.25 µg/mL in [7], 0.125 µg/mL in series [8] and 0.25 µg/mL in series [9].

As a reminder, the MIC is the lowest concentration found to suppress growth. The term CC50 denotes the concentration at which the toxic effect on the cells reaches its halfway point. High values mean lower toxicity to the cells, low ones greater toxicity to the cells. Broadly, the melting point is the temperature, or range, at which the solid turns liquid.
